Assay results published in US5783689A, “Antibacterial and antifungal nucleosides” (University of Notre Dame, priority 1996, dated 1998).
Converted amounts (≈) assume the structure as drawn. Where two headings read alike, the source gives them in different places. Where a SMILES comes first, the peptide text is derived from it. [ ]: non-standard residue; d: D form. The star is where a group is joined. X1 = O=c1[nH]c(=O)n([C@@H]2O[C@H](CO*)[C@@H](O)[C@H]2O)cc1F; Orn(N5-OH,N5-Ac) = CC(=O)N(O)CCC[C@H](N)C(=O)O

Tests used:
Format in all cases: cell-based
[1] = system: Staphylococcus aureus V 41; test: MIC by agar dilution method; conditions: V41, read-out: Minimum Inhibitory Concentration
Text: (§1) The following Table 3 lists the minimum inhibitory concentrations obtained by the agar dilution method against Gram-positive and Gram-negative organisms with 5'-O-(valinyl)-5-fluorouridine and comparators ampicillin and 5-FC.

[2] = system: Staphylococcus aureus S13E; test: MIC by agar dilution method; conditions: read-out: Minimum Inhibitory Concentration
Text: as §1

[3] = system: Pseudomonas PS19; test: MIC by agar dilution method
Text: as §1

[4] = system: E. Coli EC14; test: MIC by agar dilution method; conditions: Escherichia coli, read-out: Minimum Inhibitory Concentration
Text: as §1

[5] = system: Staphylococcus aureus X 1.1; test: MIC by agar dilution method; conditions: X1.1, read-out: Minimum Inhibitory Concentration
Text: as §1

[6] = system: Staphylococcus aureus X 400; test: MIC by agar dilution method
Text: as §1

[7] = system: Staphylococcus epidermis 222; test: MIC by agar dilution method; conditions: read-out: Minimum Inhibitory Concentration
Text: as §1

[8] = system: Enterococcus D X66; test: MIC by agar dilution method
Text: as §1

[9] = system: Enterococcus D 2041; test: MIC by agar dilution method; conditions: D2041, read-out: Minimum Inhibitory Concentration
Text: as §1

[10] = system: Staphylococcus epidermis 70; test: MIC by agar dilution method; conditions: read-out: Minimum Inhibitory Concentration
Text: as §1

[11] = system: Candida albicans; test: in vitro test against Candida albicans, zone of inhibition, Lee's medium; conditions: 37° C.
Text: The test compound of Table 3,5'-O-(valinyl)-5-fluorouridine, was coupled to the triornithyl peptide represented by the formula 2 wherein p is 3 by following the reaction Scheme 1 above and substituting valine for glycine to provide the tetrapeptide of the invention. […] Lee, K. L.; Buckley, H. R.; Campbell, C. C., Saubouraudia, 1975, 13, 148. The tetrapeptide gave a 35 mm diameter zone of inhibition at a concentration of the compound of 25 nmol. while at a concentration of 5 nmol. the zone of inhibition was 26 mm.

[12] = system: Salmonella 1335; test: MIC by agar dilution method; conditions: read-out: Minimum Inhibitory Concentration
Text: as §1

[13] = system: Enterobacter aerogenes C32; test: MIC by agar dilution method; conditions: Klebsiella aerogenes, read-out: Minimum Inhibitory Concentration
Text: as §1

[14] = system: Enterobacter aerogenes EB17; test: MIC by agar dilution method; conditions: Klebsiella aerogenes, read-out: Minimum Inhibitory Concentration
Text: as §1

[15] = system: Serratia X99; test: MIC by agar dilution method; conditions: read-out: Minimum Inhibitory Concentration
Text: as §1

[16] = system: Proteus stu PR33; test: MIC by agar dilution method; conditions: read-out: Minimum Inhibitory Concentration
Text: as §1

[17] = system: Shigella sonnei N9; test: MIC by agar dilution method; conditions: N9, read-out: Minimum Inhibitory Concentration
Text: as §1

[18] = system: Serratia SE3; test: MIC by agar dilution method; conditions: read-out: Minimum Inhibitory Concentration
Text: as §1

[19] = system: Proteus rett. C24; test: MIC by agar dilution method; conditions: read-out: Minimum Inhibitory Concentration
Text: as §1

[20] = system: Morganella morganii PR15; test: MIC by agar dilution method; conditions: read-out: Minimum Inhibitory Concentration
Text: as §1

[21] = system: Enterobacter cloacae EB5; test: MIC by agar dilution method; conditions: read-out: Minimum Inhibitory Concentration
Text: as §1

[22] = system: Klebsiella X26; test: MIC by agar dilution method; conditions: read-out: Minimum Inhibitory Concentration
Text: as §1

[23] = system: E. Coli TEM; test: MIC by agar dilution method; conditions: Escherichia coli, read-out: Minimum Inhibitory Concentration
Text: as §1

[24] = system: Salmonella X514; test: MIC by agar dilution method; conditions: read-out: Minimum Inhibitory Concentration
Text: as §1

[25] = system: Streptococcus A C203; test: MIC by agar dilution method; set-up: key: NG: no growth
Text: as §1

[26] = system: Streptococcus pn PARK; test: MIC by agar dilution method; conditions: read-out: Minimum Inhibitory Concentration
Text: as §1

[27] = system: Gram-positive bacteria including the methicillin resistant staphylococci; test: in vitro growth inhibition of Gram-positive bacteria including methicillin resistant staphylococci
Text: as §1

[28] = system: Gram-negative microorganisms; test: activity against Gram-negative microorganisms; conditions: compared with Gram-positive bacteria
Text: as §1

[29] = X400, Staphylococcus aureus X 400, agar dilution, read-out: Minimum Inhibitory Concentration
[30] = DX66, Enterococcus D X66, agar dilution, read-out: Minimum Inhibitory Concentration
[31] = Pseudomonas PS19, agar dilution, read-out: Minimum Inhibitory Concentration

| SMILES | MIC [1] | MIC [2] | MIC [5] | MIC [6, 29] | MIC [7] | MIC [8, 30] | MIC [9] | MIC [10] | MIC [12] | MIC [13] | MIC [14] | MIC [15] | MIC [16] | MIC [3, 31] | MIC [17] | MIC [18] | MIC [19] | MIC ([4]; E. Coli EC14, agar dilution) | MIC [20] | MIC [21] | other results |
| --- | --- | --- | --- | --- | --- | --- | --- | --- | --- | --- | --- | --- | --- | --- | --- | --- | --- | --- | --- | --- | --- |
| Nc1nc(=O)n([C@@H]2O[C@H](CO)[C@@H](O)[C@H]2O)cc1F [Example 5-FC, 5-fluorocytidine] | 8 µg/mL (≈ 30.6 µM) | 2 µg/mL (≈ 7.66 µM) | 8 µg/mL (≈ 30.6 µM) | 8 µg/mL (≈ 30.6 µM) | 16 µg/mL (≈ 61.3 µM) | 0.25 µg/mL (≈ 0.957 µM) | 4 µg/mL (≈ 15.3 µM) | 16 µg/mL (≈ 61.3 µM) |  |  |  |  |  |  |  |  |  |  |  |  | MIC ([3]; Pseudomonas, PS19, read-out: Minimum Inhibitory Concentration): > 128 µg/mL; MIC [4]: > 128 µg/mL |
| CC(=O)N(O)CCC[C@H](NC(=O)[C@H](CCCN(O)C(C)=O)NC(=O)[C@@H](N)CCCN(O)C(C)=O)C(=O)N[C@H](C(=O)OC[C@H]1O[C@@H](n2cc(F)c(=O)[nH]c2=O)[C@H](O)[C@@H]1O)C(C)C [tetrapeptide] (H-[Orn(N5-OH,N5-Ac)][Orn(N5-OH,N5-Ac)][Orn(N5-OH,N5-Ac)]V-X1) |  |  |  |  |  |  |  |  |  |  |  |  |  |  |  |  |  |  |  |  | diameter zone of inhibition ([11]; 5 nmol): 26 mm; diameter zone of inhibition ([11]; 25 nmol): 35 mm; activity against Candida albicans (in words) ([11]; in vitro): exhibited activity against Candida albicans |
| CC1(C)S[C@@H]2[C@H](NC(=O)[C@H](N)c3ccccc3)C(=O)N2[C@H]1C(=O)O [Ampicillin] | 4 µg/mL (≈ 11.4 µM) | 128 µg/mL (≈ 366 µM) | 2 µg/mL (≈ 5.72 µM) |  | 2 µg/mL (≈ 5.72 µM) |  | 1 µg/mL (≈ 2.86 µM) | 8 µg/mL (≈ 22.9 µM) | 0.125 µg/mL (≈ 0.358 µM) | 0.5 µg/mL (≈ 1.43 µM) | 0.06 µg/mL (≈ 0.172 µM) | 0.25 µg/mL (≈ 0.715 µM) | 0.06 µg/mL (≈ 0.172 µM) | 32 µg/mL (≈ 91.6 µM) | 0.6 µg/mL (≈ 1.72 µM) | 0.5 µg/mL (≈ 1.43 µM) | 0.06 µg/mL (≈ 0.172 µM) | 0.06 µg/mL (≈ 0.172 µM) | 1 µg/mL (≈ 2.86 µM) | 0.25 µg/mL (≈ 0.715 µM) | MIC ([6]; Staphylococcus aureus, X400, read-out: Minimum Inhibitory Concentration): 128 µg/mL (≈ 366 µM); MIC ([8]; Enterococcus, DX66, read-out: Minimum Inhibitory Concentration): 128 µg/mL (≈ 366 µM); MIC [22]: 0.008 µg/mL (≈ 0.0229 µM); MIC [23]: 0.03 µg/mL (≈ 0.0859 µM); MIC [24]: 0.06 µg/mL (≈ 0.172 µM) |
| CC(C)[C@H](N)C(=O)OC[C@H]1O[C@@H](n2cc(F)c(=O)[nH]c2=O)[C@H](O)[C@@H]1O [Test Compd, 5'-O-(L-valinyl)-5-fluorouridine] | 0.25 µg/mL (≈ 0.692 µM) | 0.125 µg/mL (≈ 0.346 µM) | 0.5 µg/mL (≈ 1.38 µM) | 0.25 µg/mL (≈ 0.692 µM) | 1 µg/mL (≈ 2.77 µM) | 32 µg/mL (≈ 88.6 µM) | 2 µg/mL (≈ 5.54 µM) | 0.03 µg/mL (≈ 0.083 µM) | 32 µg/mL (≈ 88.6 µM) | 64 µg/mL (≈ 177 µM) | 64 µg/mL (≈ 177 µM) | 16 µg/mL (≈ 44.3 µM) | 32 µg/mL (≈ 88.6 µM) | 128 µg/mL (≈ 354 µM) | 64 µg/mL (≈ 177 µM) | 16 µg/mL (≈ 44.3 µM) | 16 µg/mL (≈ 44.3 µM) | 128 µg/mL (≈ 354 µM) | 8 µg/mL (≈ 22.1 µM) | 32 µg/mL (≈ 88.6 µM) | Minimum Inhibitory Concentration [25]: NG; MIC [22]: 32 µg/mL (≈ 88.6 µM); MIC [26]: 128 µg/mL (≈ 354 µM); MIC [23]: 16 µg/mL (≈ 44.3 µM); MIC [24]: 32 µg/mL (≈ 88.6 µM); growth inhibition of Gram-positive bacteria / methicillin-resistant staphylococcus (in words) [27]: inhibited the in vitro growth of Gram-positive bacteria including the methicillin resistant staphylococci; growth inhibition of Gram-positive bacteria / methicillin-resistant staphylococcus (in words) ([27]; listed as 5'-O-(valinyl)-5-fluorouridine): inhibits the growth of methicillin-resistant staphylococcus; activity against Gram-negative microorganisms (in words) [28]: also active against Gram-negative microorganisms but to a lesser degree |
